Laboratory results published in PMC11325555, “Interaction of Bisphenol A and Its Analogs with Estrogen and Androgen Receptor from Atlantic Cod (Gadus morhua)” (Environmental Science & Technology, 2024).

Legend:
[1] = test system: Atlantic cod precision-cut liver slices (PCLS); assay: PCLS viability, lactate dehydrogenase (LDH) assay; format: cell-based, Atlantic cod (Gadus morhua); conditions: 1µM; 96 h exposure
Experimental: To monitor the viability of the liver tissue, the release of LDH to the medium was quantified with an LDH Cytotoxicity Detection kit (Roche, Basel, Switzerland) according to the manufacturer’s protocol. Briefly, 50 μL of PCLS medium collected at the end of 96 h exposure was pipetted in triplicates into a clear 96-well plate, 50 μL of provided reagent mixture with the substrate was added, and the mixture was incubated for 10 min at room temperature in the dark. Absorbance was measured at 490 nm using an EnSpire plate reader (PerkinElmer, Waltham, USA), with 650 nm reference measurement. The LDH activity was normalized to the liver tissue weight, and statistical analysis was performed as described above for the ELISA data.
Figure S3. Assessment of PCLS tissue viability in BP-treated and DMSO control groups. Data points represent mean ± SD of fold-changes (normalized to DMSO) in LDH activity (in the culture medium) per mg of tissue (n = 5-6). For each compound, increasing concentrations used are arranged bottom up vertically (y-axis), […]
starting with DMSO control. […]
in comparisons between the different concentrations and the corresponding DMSO control. One treatment group […]
Figure S4. Sequence alignment of ligand binding domain of gmEra and hsERa. Alignment was constructed in Jalview using Clustal with default settings. […]

[2] = test system: Er-mediated synthesis of Vtg in Atlantic cod PCLS; assay: Vitellogenin ELISA in media of exposed precision-cut liver slices (PCLS); format: cell-based, Atlantic cod (Gadus morhua); conditions: 96 h; for Vtg synthesis in PCLS, result in words: 1, 10, 100 μM bisphenols or 0.1, 1, 10 nM EE2, Vtg in media by ELISA
Experimental: PCLS culturing and exposure assays were performed essentially as described previously,[42],[56] with the modifications described below. Juvenile Atlantic cod were killed by a blow to the head, and the liver was dissected out and placed in a Petri dish containing ice-cold PCLS buffer (122 mM NaCl, 4.8 mM KCl, 1.2 mM MgSO4, 11 mM Na2HPO4, 3.7 mM NaHCO3, […]). The liver was then cut into small tissue blocks (approximately 3 cm long, 2 cm wide, and 1–3 cm high) and kept in ice-cold complete culture medium (L-15 medium supplemented with 10% FBS and 1× antibiotic-antimycotic solution). For slicing, the tissue block was fixed on the specimen plate of a Leica vibrating blade microtome VT1200 (Leica, Wetzlar, Germany) using Loctite Super Glue (Clas Ohlson, Bergen, Norway), and 250 μm thick tissue slices were cut (under ice-cold PCLS buffer) and kept in a Petri dish with ice-cold complete culture medium. Using a sterile razor blade, the tissue slices (2 × 3 cm) were then divided into smaller pieces (approximately 4 × 4 mm) and distributed into a 12-well cell culture plate (Sarstedt, Nümbrecht, Germany), each well containing 6 slices and 2 mL of complete culture medium. The PCLS were preincubated at 10 °C for 2 h before exposure. After preincubation, 1 mL of the medium was removed from each well and replaced by 1 mL of fresh complete culture medium containing 2x the final desired concentration and incubated at 10 °C for 96 h with shaking at 50 rpm. […] At the end of the exposure, slices were collected with tweezers and rinsed briefly in cold PBS. Excess PBS was removed by carefully touching a dry surface of the culture plate with the slice 4 times before measuring the weight in a preweighed cryotube. The slices were then snap-frozen in liquid N2 and stored at −80 °C. The media was also sampled and stored at −80 °C for viability (LDH) assay and vitellogenin ELISA.
Vitellogenin (Vtg) in media collected from exposed PCLS was quantified using the Atlantic Cod Vitellogenin ELISA kit (Biosense Laboratories AS, Bergen, Norway) according to manufacturer’s instructions. Vtg was quantified in 100 μL of undiluted media and normalized to the weight of the liver tissue. Statistical analysis of ELISA data was performed with GraphPad Prism Software version 9 (GraphPad Prism, La Jolla, CA, USA) by using one-way ANOVA followed by Dunnett’s test (for normally distributed data) or Friedman test followed by Dunn’s test (for non-normally distributed data), as described previously for PCLS experiments (Yadetie et al.[42]).
Figure 5 Relative vitellogenin production in Atlantic cod precision-cut liver slices (PCLS) exposed to bisphenols and EE2. PCLS were exposed to 1, 10, and 100 μM bisphenols or 0.1, 1, and 10 nM EE2, for 96 h. EE2 was included as positive control for activation of the gmEra signaling pathway. Levels of induced Vtg in the PCLS media were measured using ELISA (Cod Vitellogenin ELISA kit, Biosense Laboratories AS). The data represents mean ± SEM of fold change (compared to solvent control) of Vtg levels from 4 to 10 fish. n = 8–10 for all bisphenols except for BADGE (n = 4). Asterisks denote significant changes (p < 0.05) compared to solvent control.

| Structure (SMILES) | LDH activity in PCLS culture medium vs DMSO control, result in words [1] | Vtg synthesis in PCLS, result in words [2] | concentration at which maximum Vtg levels were observed ([2]; 1, 10, 100 μM tested) [µM] |
| --- | --- | --- | --- |
| Oc1ccc(C2(c3ccc(O)cc3)c3ccccc3-c3ccccc32)cc1 [BPFL] | significantly lower LDH activity | only moderate and not statistically significant | 10 |
| CC(C)(c1ccc(OCC2CO2)cc1)c1ccc(OCC2CO2)cc1 (stereo not shown) [BADGE] |  | small, but significant, decrease in the Vtg synthesis |  |
